Assays:
Raw 264.7 cells = experiment: Light-triggered release of FDA from nanoparticles, cell fluorescence (imaging, plate reader); format: cell-based; conditions: UV irradiation, free FDA
Protocol: The dye selected for these studies was Fluorescein Diacetate (FDA), which is an ester of fluorescein. […] Nanoparticles containing FDA were formulated through an inverse emulsion/solvent evaporation process. […] The resulting solution was added to a larger volume of 1% solution of polyvinyl alcohol (PVA) and probe sonicated to form the emulsion. The organic solvent was then evaporated under vacuum, and PVA removed by tangential flow ultrafiltration. The resulting solution was then freeze-dried with mannitol as cryoprotectant. The resulting particles were characterized by dynamic light scattering (DLS) and scanning electron microscopy (SEM). The encapsulation efficiency was evaluated by liquid-liquid extraction of FDA from particles and fluorescence measurements. […] As a more quantitative assay, we measured the amount of fluorescence of the cells using a plate reader (same cell count in each well). […] FIG. 4 is a bar graph showing the measured fluorescence for irradiated and non-irradiated Raw 264.7 cells. The cells in irradiated wells show higher fluorescence due to triggered release of payload (dark bars) as compared to cells in non-irradiated wells (light bars). […] We found an 18-fold increase in fluorescence upon irradiation as compared to the non-irradiated control in Raw 264.7 macrophage cell line, as well as a 3-fold increase upon irradiation in retinal cell line.

[1] = Visual and microscopic inspection of the eye after intra-vitreous injection; format: in vivo, Sprague-Dawley albino rats; conditions: compared with PBS buffer (left eye)
Protocol: WO2011/038117. Initial in vivo testing on a rat model (Sprague-Dawley albino rats) was performed to determine the biocompatibility of the empty polymer particles without encapsulated cargo. This involved intra-vitreous injection of different concentrations of the light-degradable particles (“NP low” and “NP high” test categories in FIG. 2A) as well as different concentrations of nanoparticles composed of a known biocompatible material (PLGA). In each animal, the test material was injected into the right eye while a phosphate buffered solution (PBS) was injected into the left eye as a negative control. Additionally, animals were administered nanoparticle solutions that had previously been irradiated with UV light (˜350 nm) to determine any deleterious effects of the degradation byproducts (“NP low+UV” and “NP high+UV”.) Lipopolysaccharide (LPS) was injected in another group as a positive control as it is known to cause inflammation. […] FIG. 2A illustrates the intra-ocular pressure (IOP) data for these tests, with each group of bars, with the bars proceeding from left to right in the figure, corresponding to pre-operative IOP, drug (nanoparticle) day 1, PBS at day 1 after injection, drug (nanoparticle) day 4 after injection, PBS day 4, drug day 5, PBS day 5 etc. up to day 7 after injection. […] Second, the intra-ocular pressure was measured daily. […]

Molecule | bleaching of FDA by irradiation (Raw 264.7 cells) | visual and microscopic inspection of the eye [1]
CC(=O)Oc1ccc2c(c1)Oc1cc(OC(C)=O)ccc1C21OC(=O)c2ccccc21 [FDA, Fluorescein Diacetate] | does not cause significant bleaching | –
Lipopolysaccharide [LPS] | – | caused tearing

— patent US20150119792A1, “LIGHT DEGRADABLE DRUG DELIVERY SYSTEM FOR OCULAR THERAPY” (priority 2012, published 2015)
